The record followed here is patent US9212151B2, “Heterocyclic compounds useful for kinase inhibition” (Amitech Therapeutic Solutions, Inc., priority 2010, dated 2015).

This data set is described as follows: MTT cell viability assay, compounds at 5, 1 and 0.2 μM, 48 hours. The data set is classed as cell-based. Particulars: human, A549 tumor cells. A digest of the protocol:
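A549 cells were seeded at 2500/well in DMEM + 10% FBS, grown overnight, then exposed to compound for 48 h. Viability was read by MTT (5 mg/ml, 4 h), with formazan dissolved in DMSO and absorbance measured at 560/570 nm to give survival rate.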
(Formazan colour is commonly taken as a measure of viable cells.)

Bounds are passed on as bounds.

What is called viability is a read-out of living cells in per cent, often relative to untreated cells. Read a low viability as a greater loss of cells. With `CSc1nc(N)cc(Oc2ccc(-c3nnc(Nc4cccc(C#N)c4)[nH]3)cc2)n1` [Compound 128], the viability at 48 h, 0.2 µM was greater than 70%; the viability at 48 h, 1 µM was greater than 70%; the viability at 48 h, 5 µM was greater than 70%.

In turn, `CSc1nc(N)cc(Oc2ccc(-c3nnc(Nc4cc(C(C)(C)C)on4)[nH]3)cc2)n1` [Compound 129] returned a viability at 48 h, 0.2 µM greater than 70%; a viability at 48 h, 1 µM greater than 70%; a viability at 48 h, 5 µM greater than 70%.

`CSc1nc(N)cc(Oc2ccc(-c3nnc(Nc4cccc(CC#N)c4)[nH]3)cc2)n1` [Compound 130] showed a viability at 48 h, 0.2 µM greater than 70%; a viability at 48 h, 1 µM greater than 70%; a viability at 48 h, 5 µM of less than 50%.

On to `CSc1nc(N)cc(Oc2ccc(-c3nnc(Nc4cccc(C(C)(C)C#N)c4)[nH]3)cc2)n1` [Compound 131], for which the viability at 48 h, 0.2 µM is greater than 70%; the viability at 48 h, 1 µM is greater than 70%; the viability at 48 h, 5 µM was less than 50%.

Molecule `CSc1nc(N)cc(Oc2ccc(-c3nnc(Nc4cc(C(C)(C)C)n[nH]4)[nH]3)cc2)n1` [Compound 132] showed a viability at 48 h, 0.2 µM greater than 70%; a viability at 48 h, 1 µM greater than 70%; a viability at 48 h, 5 µM of less than 50%.

Turning to `CSc1nc(N)cc(Oc2ccc(-c3nnc(Nc4cccc(Cl)c4)[nH]3)cc2)n1` [Compound 133], the viability at 48 h, 0.2 µM is greater than 70%; the viability at 48 h, 1 µM is less than 50%; the viability at 48 h, 5 µM was less than 50%.

In turn, `CSc1nc(N)cc(Oc2ccc(-c3nnc(Nc4cccc(OC(C)C)c4)[nH]3)cc2)n1` [Compound 134] came in with a viability at 48 h, 0.2 µM greater than 70%; a viability at 48 h, 1 µM greater than 70%; a viability at 48 h, 5 µM of less than 50%.

`CSc1nc(N)cc(Oc2ccc(-c3nnc(Nc4cccc5c4CCCC5)[nH]3)cc2)n1` [Compound 135] registered a viability at 48 h, 0.2 µM of less than 50%; a viability at 48 h, 1 µM of less than 50%; a viability at 48 h, 5 µM of less than 50%.

`CSc1nc(N)cc(Oc2ccc(-c3nnc(Nc4ccc5c(c4)-c4ccccc4C5)[nH]3)cc2)n1` [Compound 136] returned a viability at 48 h, 0.2 µM greater than 70%; a viability at 48 h, 1 µM of 50 to 70%; a viability at 48 h, 5 µM of less than 50%.

The molecule `CSc1nc(N)cc(Oc2ccc(-c3nnc(Nc4cccc(C(F)(F)F)c4F)[nH]3)cc2)n1` [Compound 137] displayed a viability at 48 h, 0.2 µM greater than 70%; a viability at 48 h, 1 µM of less than 50%; a viability at 48 h, 5 µM of less than 50%.

`COC(=O)c1cccc(Nc2nnc(-c3ccc(Oc4cc(N)nc(SC)n4)cc3)[nH]2)c1` [Compound 138] gave a viability at 48 h, 0.2 µM greater than 70%; a viability at 48 h, 1 µM greater than 70%; a viability at 48 h, 5 µM of less than 50%.

In turn, `CSc1nc(N)cc(Oc2ccc(-c3nnc(Nc4cc(C(C)(C)C)nn4-c4cccc(C)c4)[nH]3)cc2)n1` [Compound 139] returned a viability at 48 h, 0.2 µM greater than 70%; a viability at 48 h, 1 µM greater than 70%; a viability at 48 h, 5 µM greater than 70%.

Take `CSc1nc(N)cc(Oc2ccc(-c3nnc(Nc4ccccc4Cl)[nH]3)cc2)n1` [Compound 140]: the viability at 48 h, 0.2 µM is greater than 70%; the viability at 48 h, 1 µM was greater than 70%; the viability at 48 h, 5 µM fell in the range of 50 to 70%.

On to `CC(C)(C)Sc1cc(Oc2ccc(-c3nnc(Nc4cccc(C(F)(F)F)c4)[nH]3)cc2)nc(N)n1` [Compound 141], for which the viability at 48 h, 0.2 µM was greater than 70%; the viability at 48 h, 1 µM was greater than 70%; the viability at 48 h, 5 µM is less than 50%.

`[2H]C([2H])([2H])Oc1cc(Oc2ccc(-c3nnc(Nc4cccc(C(F)(F)F)c4)[nH]3)cc2)nc(N)n1` [Compound 142] displayed a viability at 48 h, 0.2 µM greater than 70%; a viability at 48 h, 1 µM greater than 70%; a viability at 48 h, 5 µM greater than 70%.

On to `FC(F)(F)c1cccc(Nc2nnc(-c3ccc(OCc4ccncc4)cc3)[nH]2)c1` [Compound 143], for which the viability at 48 h, 0.2 µM was greater than 70%; the viability at 48 h, 1 µM is greater than 70%; the viability at 48 h, 5 µM was greater than 70%.

On to `CCCNc1cc(Oc2ccc(-c3nnc(Nc4cccc(C(F)(F)F)c4)[nH]3)cc2)nc(SC)n1` [Compound 144], for which the viability at 48 h, 0.2 µM was greater than 70%; the viability at 48 h, 1 µM was greater than 70%; the viability at 48 h, 5 µM lay in the range of 50 to 70%.

On to `COCCCNc1cc(Oc2ccc(-c3nnc(Nc4cccc(C(F)(F)F)c4)[nH]3)cc2)nc(SC)n1` [Compound 145], for which the viability at 48 h, 0.2 µM is greater than 70%; the viability at 48 h, 1 µM was greater than 70%; the viability at 48 h, 5 µM was less than 50%.

Molecule `FC(F)(F)c1cccc(Nc2nnc(-c3ccc(Oc4cncc5ccccc45)cc3)[nH]2)c1` [Compound 146] had a viability at 48 h, 0.2 µM greater than 70%; a viability at 48 h, 1 µM greater than 70%; a viability at 48 h, 5 µM of less than 50%.

Molecule `O=[N+]([O-])c1cc(F)cc(Oc2ccc(-c3nnc(Nc4cccc(C(F)(F)F)c4)[nH]3)cc2)c1` [Compound 147] yielded a viability at 48 h, 0.2 µM greater than 70%; a viability at 48 h, 1 µM greater than 70%; a viability at 48 h, 5 µM of 50 to 70%.

For the molecule `FC(F)(F)c1cccc(Nc2nnc(-c3ccc(Oc4ccnc5cc(C(F)(F)F)ccc45)cc3)[nH]2)c1` [Compound 148], the viability at 48 h, 0.2 µM is greater than 70%; the viability at 48 h, 1 µM is greater than 70%; the viability at 48 h, 5 µM is greater than 70%.

Molecule `FC(F)(F)c1cccc(Nc2nnc(-c3ccc(Oc4nccc5ccccc45)cc3)[nH]2)c1` [Compound 149] displayed a viability at 48 h, 0.2 µM greater than 70%; a viability at 48 h, 1 µM greater than 70%; a viability at 48 h, 5 µM of 50 to 70%.

The molecule `FC(F)(F)c1cccc(Nc2nnc(-c3ccc(Oc4ccnc5cc(Cl)ccc45)cc3)[nH]2)c1` [Compound 150] showed a viability at 48 h, 0.2 µM greater than 70%; a viability at 48 h, 1 µM greater than 70%; a viability at 48 h, 5 µM greater than 70%.

`CC(C)(C)Sc1cc(Oc2cccc(-c3nnc(Nc4cccc(C(F)(F)F)c4)[nH]3)c2)nc(N)n1` [Compound 151]: the viability at 48 h, 0.2 µM is greater than 70%; the viability at 48 h, 1 µM is greater than 70%; the viability at 48 h, 5 µM was greater than 70%.

Turning to `Nc1cc(Oc2ccc(-c3nnc(Nc4cccc(C(F)(F)F)c4)[nH]3)cc2)nc(Sc2ccccn2)n1` [Compound 152], the viability at 48 h, 0.2 µM is greater than 70%; the viability at 48 h, 1 µM is greater than 70%; the viability at 48 h, 5 µM was greater than 70%.

The molecule `CSc1nc(N)cc(Oc2ccc(-c3nnc(Nc4cccc(C(=O)O)c4)[nH]3)cc2)n1` [Compound 153] yielded a viability at 48 h, 0.2 µM greater than 70%; a viability at 48 h, 1 µM greater than 70%; a viability at 48 h, 5 µM greater than 70%.

In the case of `CSc1nc(N)cc(Oc2ccc(-c3nnc(Nc4ccccc4C)[nH]3)cc2)n1` [Compound 154], the viability at 48 h, 0.2 µM lay in the range of 50 to 70%; the viability at 48 h, 1 µM is less than 50%; the viability at 48 h, 5 µM was less than 50%.

The molecule `CSc1nc(N)cc(Oc2ccc(-c3nnc(NC4CCCCC4)[nH]3)cc2)n1` [Compound 155] registered a viability at 48 h, 0.2 µM greater than 70%; a viability at 48 h, 1 µM greater than 70%; a viability at 48 h, 5 µM of less than 50%.

In turn, `Nc1cc(F)cc(Oc2ccc(-c3nnc(Nc4cccc(C(F)(F)F)c4)[nH]3)cc2)c1` [Compound 156] had a viability at 48 h, 0.2 µM greater than 70%; a viability at 48 h, 1 µM greater than 70%; a viability at 48 h, 5 µM of 50 to 70%.

For the molecule `Cc1nc(C(F)(F)F)nc(Oc2ccc(-c3nnc(Nc4cccc(C(F)(F)F)c4)[nH]3)cc2)c1C` [Compound 157], the viability at 48 h, 0.2 µM is greater than 70%; the viability at 48 h, 1 µM was greater than 70%; the viability at 48 h, 5 µM was greater than 70%.

Turning to `Cc1cc(Oc2ccc(-c3nnc(Nc4cccc(C(F)(F)F)c4)[nH]3)cc2)c2ccccc2n1` [Compound 158], the viability at 48 h, 0.2 µM was greater than 70%; the viability at 48 h, 1 µM is greater than 70%; the viability at 48 h, 5 µM lay within 50 to 70%.

Regarding `FC(F)(F)c1cccc(Nc2nnc(-c3ccc(Oc4cc(C(F)(F)F)nc5ccccc45)cc3)[nH]2)c1` [Compound 159], the viability at 48 h, 0.2 µM was greater than 70%; the viability at 48 h, 1 µM is greater than 70%; the viability at 48 h, 5 µM was 50 to 70%.

Regarding `COc1cc2ncnc(Oc3ccc(-c4nnc(Nc5cccc(C(F)(F)F)c5)[nH]4)cc3)c2cc1OC` [Compound 160], the viability at 48 h, 0.2 µM was greater than 70%; the viability at 48 h, 1 µM was greater than 70%; the viability at 48 h, 5 µM is 50 to 70%.

For the molecule `O=c1cc(COc2ccc(-c3nnc(Nc4cccc(C(F)(F)F)c4)[nH]3)cc2)c2ccccc2[nH]1` [Compound 161], the viability at 48 h, 0.2 µM was greater than 70%; the viability at 48 h, 1 µM lay in the range of 50 to 70%; the viability at 48 h, 5 µM is less than 50%.

In turn, `Cc1ccc2nccc(Oc3ccc(-c4nnc(Nc5cccc(C(F)(F)F)c5)[nH]4)cc3)c2c1` [Compound 162] returned a viability at 48 h, 0.2 µM greater than 70%; a viability at 48 h, 1 µM greater than 70%; a viability at 48 h, 5 µM greater than 70%.

Consider `FC(F)(F)Oc1ccc2c(Oc3ccc(-c4nnc(Nc5cccc(C(F)(F)F)c5)[nH]4)cc3)ccnc2c1` [Compound 163], for which the viability at 48 h, 0.2 µM was greater than 70%; the viability at 48 h, 1 µM is greater than 70%; the viability at 48 h, 5 µM was greater than 70%.

Regarding `FC(F)(F)c1cccc(Nc2nnc(-c3cccc(Oc4cncc5ccccc45)c3)[nH]2)c1` [Compound 164], the viability at 48 h, 0.2 µM was greater than 70%; the viability at 48 h, 1 µM was greater than 70%; the viability at 48 h, 5 µM lay within 50 to 70%.

Molecule `FC(F)(F)c1cccc(Nc2nnc(-c3cccc(Oc4ccnc5cc(C(F)(F)F)ccc45)c3)[nH]2)c1` [Compound 165] returned a viability at 48 h, 0.2 µM greater than 70%; a viability at 48 h, 1 µM greater than 70%; a viability at 48 h, 5 µM greater than 70%.

The molecule `FC(F)(F)c1cccc(Nc2nnc(-c3cccc(Oc4nccc5ccccc45)c3)[nH]2)c1` [Compound 166] displayed a viability at 48 h, 0.2 µM greater than 70%; a viability at 48 h, 1 µM greater than 70%; a viability at 48 h, 5 µM greater than 70%.

`FC(F)(F)c1cccc(Nc2nnc(-c3cccc(Oc4ccnc5cc(Cl)ccc45)c3)[nH]2)c1` [Compound 167] yielded a viability at 48 h, 0.2 µM greater than 70%; a viability at 48 h, 1 µM greater than 70%; a viability at 48 h, 5 µM greater than 70%.
